Source: PubChem BioAssay (NCI)
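How tested: cells in 96-well plates exposed to compound for 48 hours at five concentrations. Here, GI50 denotes the concentration required for 50% inhibition of growth. TGI denotes the concentration required for complete inhibition of growth.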

How the values were obtained:
Experiment in all cases: inhibition of tumour cell growth, NCI panel, 48 h
[1] = test system: RPMI-8226 leukemia
[2] = test system: PC-3 prostate
[3] = test system: OVCAR-4 ovarian
[4] = test system: OVCAR-3 ovarian
[5] = test system: MDA-MB-231 breast
[6] = test system: NCI-H522 lung
[7] = test system: CAKI-1 renal
[8] = test system: SF-295 CNS
[9] = test system: M14 melanoma
[10] = test system: IGROV1 ovarian
[11] = test system: K-562 leukemia
[12] = test system: A498 renal
[13] = test system: TK-10 renal
[14] = test system: OVCAR-5 ovarian
[15] = test system: HCC-2998 colon
[16] = test system: SW-620 colon
[17] = test system: SF-539 CNS
[18] = test system: HCT-15 colon
[19] = test system: KM12 colon
[20] = test system: SK-MEL-2 melanoma
[21] = test system: NCI-H460 lung
[22] = test system: NCI/ADR-RES ovarian
[23] = test system: HCT-116 colon
[24] = test system: HS 578T breast
[25] = test system: MDA-MB-435
[26] = test system: SN12C renal
[27] = test system: MALME-3M melanoma
[28] = test system: MOLT-4 leukemia
[29] = test system: MCF7 breast
[30] = test system: CCRF-CEM leukemia
[31] = test system: ACHN renal
[32] = test system: UACC-62 melanoma
[33] = test system: SNB-19 CNS
[34] = test system: HOP-92 NSCLC
[35] = test system: SK-MEL-28 melanoma
[36] = test system: SR leukemia
[37] = test system: UO-31 renal
[38] = test system: OVCAR-8 ovarian
[39] = test system: BT-549 breast
[40] = test system: LOX IMVI melanoma
[41] = test system: DU-145 prostate
[42] = test system: NCI-H23 lung
[43] = test system: SF-268 CNS
[44] = test system: UACC-257 melanoma
[45] = test system: 786-0 renal
[46] = test system: U251 CNS
[47] = test system: SK-MEL-5 melanoma
[48] = test system: SNB-75 CNS
[49] = test system: EKVX NSCLC
[50] = test system: HL-60(TB) leukemia
[51] = test system: RXF 393 renal

Structure (SMILES): CN1CCN(CCOc2ccc(-c3cnc4c(-c5cccc(F)c5F)cnn4c3)cc2)CC1
- GI50 [1]: 1450 nM
- TGI [1]: 4010 nM
- GI50 [2]: 1960 nM
- TGI [2]: 5640 nM
- GI50 [3]: 1280 nM
- TGI [3]: 2950 nM
- GI50 [4]: 1710 nM
- TGI [4]: 3420 nM
- GI50 [5]: 1600 nM
- TGI [5]: 3360 nM
- GI50 [6]: 1590 nM
- TGI [6]: 3270 nM
- GI50 [7]: 1520 nM
- TGI [7]: 2910 nM
- GI50 [8]: 1800 nM
- TGI [8]: 3330 nM
- GI50 [9]: 1710 nM
- TGI [9]: 3200 nM
- GI50 [10]: 1610 nM
- TGI [10]: 3270 nM
- GI50 [11]: 1660 nM
- TGI [11]: 3530 nM
- GI50 [12]: 5410 nM
- TGI [12]: 19700 nM
- GI50 [13]: 2010 nM
- TGI [13]: 3620 nM
- GI50 [14]: 1990 nM
- TGI [14]: 4430 nM
- GI50 [15]: 11700 nM
- TGI [15]: 24700 nM
- GI50 [16]: 1860 nM
- TGI [16]: 3590 nM
- GI50 [17]: 1740 nM
- TGI [17]: 3170 nM
- GI50 [18]: 1480 nM
- TGI [18]: 2910 nM
- GI50 [19]: 1720 nM
- TGI [19]: 3390 nM
- GI50 [20]: 15500 nM
- TGI [20]: 31000 nM
- GI50 [21]: 1670 nM
- TGI [21]: 3190 nM
- GI50 [22]: 2210 nM
- TGI [22]: 5490 nM
- GI50 [23]: 1660 nM
- TGI [23]: 3040 nM
- GI50 [24]: 1910 nM
- TGI [24]: 4740 nM
- GI50 [25]: 1680 nM
- TGI [25]: 3070 nM
- GI50 [26]: 2080 nM
- TGI [26]: 4670 nM
- GI50 [27]: 1530 nM
- TGI [27]: 3010 nM
- GI50 [28]: 1600 nM
- TGI [28]: 3530 nM
- GI50 [29]: 1320 nM
- TGI [29]: 2950 nM
- GI50 [30]: 1550 nM
- TGI [30]: 3810 nM
- GI50 [31]: 1620 nM
- TGI [31]: 2970 nM
- GI50 [32]: 1840 nM
- TGI [32]: 3610 nM
- GI50 [33]: 1910 nM
- TGI [33]: 3880 nM
- GI50 [34]: 4140 nM
- TGI [34]: 26400 nM
- GI50 [35]: 1770 nM
- TGI [35]: 3260 nM
- GI50 [36]: 282 nM
- TGI [36]: 1160 nM
- GI50 [37]: 1250 nM
- TGI [37]: 2550 nM
- GI50 [38]: 2100 nM
- TGI [38]: 5260 nM
- GI50 [39]: 1570 nM
- TGI [39]: 3150 nM
- GI50 [40]: 1800 nM
- TGI [40]: 3340 nM
- GI50 [41]: 1690 nM
- TGI [41]: 3440 nM
- GI50 [42]: 1700 nM
- TGI [42]: 3330 nM
- GI50 [43]: 2150 nM
- TGI [43]: 5240 nM
- GI50 [44]: 1770 nM
- TGI [44]: 3490 nM
- GI50 [45]: 1630 nM
- TGI [45]: 3070 nM
- GI50 [46]: 1440 nM
- TGI [46]: 2940 nM
- GI50 [47]: 1670 nM
- TGI [47]: 3070 nM
- GI50 [48]: 1410 nM
- TGI [48]: 2730 nM
- GI50 [49]: 1590 nM
- TGI [49]: 3750 nM
- GI50 [50]: 1910 nM
- TGI [50]: 3790 nM
- GI50 [51]: 1690 nM
- TGI [51]: 3490 nM
